{"source": "patent US20210254056A1", "about": "“IDENTIFICATION AND TARGETED MODULATION OF GENE SIGNALING NETWORKS” (CAMP4 THERAPEUTICS CORPORATION, priority 2017, published 2021)", "key": {"hepatocytes [1]": {"test_system": "hepatocytes", "assay": "RNA-seq of hepatocytes stimulated with the compounds of Table 68", "conditions": "hepatocytes, RNA-seq"}, "[2]": {"test_system": "primary human hepatocytes", "assay": "RNA-seq of primary human hepatocytes treated with 39 small molecules (pilot and validation)", "conditions": "pilot RNA-seq study of Example 2; significance: FPKM≥0.5, log 2(fold change)≥1, q-value ≤0.05"}, "hepatocytes [3]": {"test_system": "hepatocytes"}, "hepatocytes [4]": {"test_system": "hepatocytes", "assay": "qRT-PCR validation of the Example 12 RNA-seq results;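 note: Compound-treated versus DMSO control, target Ct normalized to GAPDH or β-actin reference (ΔΔCt method), positive values mean higher expression than DMSO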"}, "hepatocytes [5]": {"test_system": "hepatocytes", "remark": "listed apart in the source"}}, "data": [{"smiles": "CO[C@H]1/C=C/O[C@@]2(C)Oc3c(C)c(O)c4c(O)c(c(/C=N/N5CCN(C)CC5)c(O)c4c3C2=O)NC(=O)/C(C)=C\\C=C\\[C@H](C)[C@H](O)[C@@H](C)[C@@H](O)[C@@H](C)[C@H](OC(C)=O)[C@@H]1C", "note": "[MT-901, Rifampicin]", "values": [{"measurement": "Cuffdiff log2fc, AGTR1", "setting": "hepatocytes [1]; log 2 fold change in AGTR1 gene expression, Cuffdiff", "result": 1.1}, {"measurement": "DESeq log2fc, AGTR1", "setting": "hepatocytes [1]; log 2 fold change in AGTR1 gene expression, DESeq", "result": 1.18}, {"measurement": "Cuffdiff log2fc, ALAS1", "setting": "hepatocytes [1]; log 2 fold change in ALAS1 gene expression, Cuffdiff", "result": 1.45}, {"measurement": "DESeq log2fc, ALAS1", "setting": "hepatocytes [1]; log 2 fold change in ALAS1 gene expression, DESeq", "result": 1.47}, {"measurement": "Cuffdiff log2fc, CA12", "setting": "hepatocytes [1]; log 2 fold change in CA12 gene expression, Cuffdiff", "result": 1.53}, {"measurement": "DESeq log2fc, CA12", "setting": "hepatocytes [1]; log 2 fold change in CA12 gene expression, DESeq", "result": 1.56}, {"measurement": "DESeq log2fc, CYP2C19", "setting": "hepatocytes [1]; log 2 fold change in CYP2C19 gene expression, DESeq", "result": 2.3}, {"measurement": "Cuffdiff log2fc, ENO3", "setting": "hepatocytes [1]; log 2 fold change in ENO3 gene expression, Cuffdiff", "result": "−1.13"}, {"measurement": "DESeq log2fc, ENO3", "setting": "hepatocytes [1]; log 2 fold change in ENO3 gene expression, DESeq", "result": "−0.97"}, {"measurement": "Cuffdiff log2fc, POR", "setting": "hepatocytes [1]; log 2 fold change in POR gene expression, Cuffdiff", "result": 1.13}, {"measurement": "DESeq log2fc, POR", "setting": "hepatocytes [1]; log 2 fold change in POR gene expression, DESeq", "result": 1.17}, {"measurement": "Cuffdiff log2fc, SLC6A6", "setting": "hepatocytes [1]; log 2 fold change in SLC6A6 gene expression, Cuffdiff", "result": 1.28}, {"measurement": "DESeq log2fc, SLC6A6", "setting": "hepatocytes [1]; log 2 fold change in SLC6A6 gene expression, DESeq", "result": 1.39}, {"measurement": "Cuffdiff log2fc, SLC6A20", "setting": "hepatocytes [1]; log 2 fold change in SLC6A20 gene expression, Cuffdiff", "result": 1.03}, {"measurement": "DESeq log2fc, SLC6A20", "setting": "hepatocytes [1]; log 2 fold change in SLC6A20 gene expression, DESeq", "result": 1.06}, {"measurement": "Cuffdiff log2fc, SLC51B", "setting": "hepatocytes [1]; log 2 fold change in SLC51B gene expression, Cuffdiff", "result": 1.02}, {"measurement": "DESeq log2fc, SLC51B", "setting": "hepatocytes [1]; log 2 fold change in SLC51B gene expression, DESeq", "result": 1.19}, {"measurement": "Cuffdiff log2fc, VLDLR", "setting": "hepatocytes [1]; log 2 fold change in VLDLR gene expression, Cuffdiff", "result": 1.69}, {"measurement": "DESeq log2fc, VLDLR", "setting": "hepatocytes [1]; log 2 fold change in VLDLR gene expression, DESeq", "result": 1.71}, {"measurement": "Number (#) of genes having significantly changed expression", "setting": "[2]", "result": 90}, {"measurement": "qRT-PCR log2fc, CYP2C19", "setting": "hepatocytes [3]", "result": "−0.37"}, {"measurement": "qRT-PCR log2fc, AGTR1", "setting": "hepatocytes [4]; log 2 fold change in AGTR1 gene expression", "result": "−0.37"}, {"measurement": "qRT-PCR log2fc, ALAS1", "setting": "hepatocytes [4]; log 2 fold change in ALAS1 gene expression", "result": 0.3}, {"measurement": "qRT-PCR log2fc, CA12", "setting": "hepatocytes [4]; log 2 fold change in CA12 gene expression", "result": 0.53}, {"measurement": "qRT-PCR log2fc, ENO3", "setting": "hepatocytes [4]; log 2 fold change in ENO3 gene expression", "result": "−0.06"}, {"measurement": "qRT-PCR log2fc, POR", "setting": "hepatocytes [4]; log 2 fold change in POR gene expression", "result": 0.16}, {"measurement": "qRT-PCR log2fc, SLC6A6", "setting": "hepatocytes [4]; log 2 fold change in SLC6A6 gene expression", "result": "−0.14"}, {"measurement": "qRT-PCR log2fc, SLC6A20", "setting": "hepatocytes [4]; log 2 fold change in SLC6A20 gene expression", "result": "−0.17"}, {"measurement": "qRT-PCR log2fc, SLC51B", "setting": "hepatocytes [4]; log 2 fold change in SLC51B gene expression", "result": 1.72}, {"measurement": "qRT-PCR log2fc, VLDLR", "setting": "hepatocytes [4]; log 2 fold change in VLDLR gene expression", "result": 0.63}, {"measurement": "DESeq log2fc, CYP7A1", "setting": "hepatocytes [5]", "result": "−1.44"}]}]}
